Assay [1] has as its target T1, short form of the GPR120 receptor (Homo sapiens, UniProt Q5NUL3).
T1 construct: host or cells: PathHunter CHO-K1 GPR120S β-Arrestin Cell Line
T1 sequence (Q5NUL3 1-361): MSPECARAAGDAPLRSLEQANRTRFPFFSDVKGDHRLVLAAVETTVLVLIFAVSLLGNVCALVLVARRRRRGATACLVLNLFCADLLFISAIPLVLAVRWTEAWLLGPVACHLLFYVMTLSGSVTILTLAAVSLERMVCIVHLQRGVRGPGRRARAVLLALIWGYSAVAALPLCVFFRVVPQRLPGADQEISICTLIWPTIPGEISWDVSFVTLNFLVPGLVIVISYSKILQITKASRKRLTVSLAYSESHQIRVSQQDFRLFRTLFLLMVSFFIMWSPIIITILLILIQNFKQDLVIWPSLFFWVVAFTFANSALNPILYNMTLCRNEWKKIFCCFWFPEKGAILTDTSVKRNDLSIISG
The experiment in a line: Human GPR120 DiscoveRx PathHunter Beta-Arrestin Assay, Procedure β-arrestin B (5000 cells/well). It counts as cell-based. An excerpt:
(§1) The binding of an agonist (medium/long chain fatty acids or small molecule agonists) to the G-protein-coupled receptor GPR120 activates phospholipase C, leading to release of intracellular Ca^+2 through the generation of inositol 1,4,5-trisphosphate (InsP3 or IP3). GPR120 activation can also trigger intracellular signaling via recruitment of β-Arrestin. In the present method, agonist-induced activation of the human GPR120 receptor is monitored through the use of PathHunter CHO-K1 GPR120 β-Arrestin Cell Line engineered by DiscoveRx, as detailed below. The cell lines are designed to co-express both the ProLink/Enzyme Donor (PK)-tagged GPCR and the Enzyme Activator (EA)-tagged β-Arrestin fusion proteins. Upon GPR120 receptor stimulation/activation, the EA-tagged β-Arrestin portion is translocated to the tagged receptor, where the two enzyme fragments are brought within close proximity. Under these conditions, these fragments can interact and form an active Beta-gal enzyme complex through Enzyme Fragment Complementation (EFC). This active Beta-gal complex can enzymatically hydrolyse the substrate to produce a detectable light signal; therefore, activation as a function of agonist concentration can be expressed as an EC50 value to determine relative compound activities. This in vitro assay therefore serves to assess compound agonist activity of the GPR120.
In Procedure β-arrestin B the cells used were PathHunter CHO-K1 GPR120S β-Arrestin Cell Line, expressing the short form of the GPR120 receptor (Accession #NM_181745), with 5000 cells/well.
(§2) The selected CHO-K1 GPR120 β-Arrestin cells were cultured in Ham's F12 media supplemented with 10% fetal bovine serum (FBS), 1% Glutamine, 1×p/s, 800 μg/ml G418 and 300 μg/ml Hygromycin B (for selection). Cell stocks were maintained and grown in a sub-confluent state using standard cell culture procedures. The day before the experiment, the cells were harvested with non-enzymatic cell dissociation buffer and re-suspended in complete growth media at the desired concentration. A Corning 384-plate was then seeded with the proper number of cells in a volume of 25 μL, per well. The seeded plates were incubated overnight at 37° C.
(§3) On the day of the experiment, the Assay Buffer containing (a) HBSS with Ca^++ and Mg^++, (b) 20 mM HEPES, and (c) 0.1% BSA stabilizer (pH 7.4) was prepared. The growth medium was gently removed from the cell plates and 20 μL of Assay Buffer added to each well. The plate was then incubated at 37° C. for 60 mins. Test compounds were serially diluted in Assay Buffer to desired concentrations (more particularly, to one or more of the following μM concentrations: 25 μM, 12.5 μM, 6.25 μM, 3.125 μM, 1.562 μM, 0.781 μM, 0.391 μM, 0.195 μM, 0.098 μM, 0.049 μM, 0.024 μM, 0.012 μM). Five μl of compound dilution was then added to each well and the plate incubated at 37° C. for 90 mins. The detection reagents were prepared according to the manufacture's instruction. Twelve μL of the detection reagents were added to each well and the plate incubated at room temperature for 60 mins.
(§4) The plates were read on an EnVision instrument, using Protocol name: Luminescence, Plate type: 384 Costar, Measurement height: 3 mm, Measurement time: 1 s, Aperture: 384 Plate aperture. The % activity relative to the positive control was calculated using the following equation:
(§5) The % Activity values were plotted versus the concentration of test compound and fitted to a sigmoidal dose-response curve with a Hill slope=1 (fixed value) using nonlinear regression with GraphPad Prism 5.0 to calculate the EC50 values. The Fitting Equation was: Y=Bottom+(Top−Bottom)/(1+10^((LogEC50−X)*HillSlope)), where X is the log of the concentration and Y is the response.

Assay [2] addresses T2, Human GPR120 short form (Homo sapiens, UniProt Q5NUL3).
T2 construct: expressed in transfected cells
T2 sequence (Q5NUL3 1-361): T1 sequence (Q5NUL3 1-361)
Kind of assay: Human GPR120 in Calcium Flux Assay, Procedure Calcium B (4200 cells/well). The format is cell-based. An excerpt:
This in vitro assay serves to assess test compound agonist activity against the short splice variant (SVS with Accession number NM_001195755.1 confirmed by sequencing data) of the GPR120 receptor. The Human Short splice variant #2 (NM_001195755.1) is missing an in-frame coding exon compared to variant 1 (the Human Long splice variant NM_181745.3), resulting in a shorter isoform (GPR120-S) lacking a 16 aa protein segment compared to isoform GPR120-L. The assay platform utilizes HEK-293 cells stably transfected to express the Human GPR120 short form. These cells are first loaded with the Ca^+2 sensitive dye, Fluo-4 NW. Upon stimulation, intracellular released Ca^+2 can bind to the dye and alter its fluorescence intensity. This increase in fluorescence signal, and thus the flux in intracellular [Ca^+2], is detected and quantitated by fluorescence imaging using a FLIPR reader. The effect of the agonist is measured as a function of concentration and used to calculate an EC50 based upon a response curve.
In this procedure 4200 cells/well were employed.
A Human GPR120 clone (Genbank accession number NM_001195755.1) was placed into the pcDNA3.1 mammalian expression vector carrying the neomycin resistance gene. A stable mammalian cell was generated by placing the above clone into a HEK293 background. Clonal cells responding to long chain fatty acids had expression levels of GPR120 confirmed by RT-qPCR. Human HEK-GPR120 cells were cultured in Dulbecco's Modified Eagle's Medium (DMEM)/F12 medium supplemented with 10% fetal bovine serum (FBS), 1% L-Glutamine and 1% penicillin/streptomycin and 0.5 mg/ml G-418. Cells were split 2 times a week to keep the cells in the log-phase growth.
In preparation for the assay, HEK cells stably transfected with Human GPR120 (2.5K cells per well in 25 uL growth medium) were seeded into 384-well plates and then incubated overnight (37° C., 5% CO2). The next day, the media was changed to 20 μl assay buffer and the cell starved for 1 h at 37° C. The dye loading solution (2× dye) was prepared using 10 ml assay buffer, 100 μl of 250 mM probenecid, 1 bottle of Component A, and 20 μl of dye in DMSO. Twenty μl of the 2× dye loading buffer was then added to each well. The plates were incubated at 37° C. for 30 min, then at room temperature for an additional 15 minutes, before performing the assay on FLIPR.
Test compounds were prepared in assay buffer (2 μl of test compound+198 μl assay buffer, final DMSO in assay plate is 0.2%) at the desired concentration, more particularly at 100 μM, 50 μM, 25 μM, 12.5 μM, 6.25 μM, 3.125 μM, 1.562 μM, 0.781 μM, 0.391 μM, 0.195 μM, 0.098 μM, 0.049 μM, 0.024 μM and 0.012 μM.
The assay was performed on a FLIPR plate reader using the following parameters. Baseline was read for 10 seconds at 1 sec intervals. The program was set to transfer 10 μL of ligand from compound plate to cell plate after baseline reading. Aspiration was executed at: 10 μl/sec speed, 4.6 μl height; Dispensing was executed at: 30 μl/sec speed, 45 μl height. After compound addition, each well was read for 300 sec, with measurements collected at 1 sec intervals.
The kinetic data from the FLIPR was based upon a 5 minute window for data collection. The fluorescence of each sample well was used for individual calculations of a normalized RFU value, which was defined as maximum response minus the minimum response. The normalized fluorescence reading (RFU) was calculated as follows: RFU=Fmax−Fmin
The data were fitted to a sigmoidal dose-response curve with a variable Hill slope (<2) using nonlinear regression with GraphPad Prism 5.0 to calculate the EC50 values. The Fitting Equation was: Y=Bottom+(Top−Bottom)/(1+10^((LogEC50−X)*HillSlope)), where X is the log of the concentration and Y is the response.
For orientation: A change in cytosolic calcium serves as a functional read-out for many receptors and channels.

Assay [3] addresses T3, long form of human GPR120 (Homo sapiens, UniProt Q5NUL3).
T3 construct: host or cells: PathHunter CHO-K1 GPR120 β-Arrestin Cell Line
T3 sequence (Q5NUL3 1-377 isoform Q5NUL3-1): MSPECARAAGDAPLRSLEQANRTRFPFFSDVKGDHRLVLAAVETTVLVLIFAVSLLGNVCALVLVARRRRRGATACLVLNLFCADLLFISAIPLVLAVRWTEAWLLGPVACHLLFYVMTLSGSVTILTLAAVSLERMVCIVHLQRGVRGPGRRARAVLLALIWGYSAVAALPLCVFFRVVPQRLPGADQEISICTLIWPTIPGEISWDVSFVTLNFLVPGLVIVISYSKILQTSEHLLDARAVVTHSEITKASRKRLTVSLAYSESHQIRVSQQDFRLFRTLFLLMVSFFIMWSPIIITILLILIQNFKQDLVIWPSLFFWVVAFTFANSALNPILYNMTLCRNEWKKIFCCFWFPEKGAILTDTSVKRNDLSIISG
The experiment in a line: Human GPR120 DiscoveRx PathHunter Beta-Arrestin Assay, Procedure β-arrestin A (3000 cells per well). The format is cell-based. To be noted: read-out: GPR120 B-arrestin A EC50.
Source text: as §1
In Procedure β-arrestin A, the cell used were PathHunter CHO-K1 GPR120 β-Arrestin Cell Line, expressing the long form of human GPR120 (Genbank accession number NM_181745), with 3000 cells per well.
as §2, §3, §4, §5

Assay [4] relates to C57bl/6J Mice. Kind of assay: C57bl6 mouse OGTT. The format is in vivo. As to the method: Male, C57bl/6J Mice were ordered in at 8 weeks of age from Jackson Labs. Individual mice weighed anywhere in the range of 25-30 grams on study day. The mice were fasted, with removal of food occurring at 7 am on the morning of the study. Animals were moved into the room at 10:00 am, to give them time to acclimate. Glucose (insulin syringes) was drawn up either the night before or the morning of the study. Glucose was dosed (IP) at 1.5 g/kg at 7.5 ml/kg (20% glucose straight TEKNOVA, 250 ml sterile bottle w/catalogue number G0525). Test compounds were kept spinning and were only drawn into the syringes prior to study commencement. Animals were bled via tail snip to determine basal glucose levels prior to dosing of treatments. An Ascensia BREEZE Blood Glucose Monitoring System by Bayer (using unique 10-test disks) was used for determining glucose levels. The bleeds started at approximately 12:45 pm and dosing started, at 1-minute intervals, immediately after. All groups were dosed 30 minutes prior to glucose administration at a dose volume of 10 ml/kg (the dose volume was calculated separately for each individual animal). Thirty minutes after the first dose animals were bled again for a second baseline, or T=0, and immediately dosed with glucose via an i.p. injection. The exact dose volume for glucose was also calculated separately for each individual animal. Glucose measurements were taken at −30 min prior to compound dose, at t=0 (immediately prior to glucose dose), and at 15, 30, 45, 60, 90 min post glucose dose.
Glucose values were entered into an Excel sheet and graphed in GraphPad Prism. The following were calculated from Prism: Change from −30 to 0 BSLN Glucose, Raw Glucose AUC −30 to 90 min, Delta Glucose AUC −30 to 90 min, Raw Glucose AUC 0 to 90 min, Delta Glucose AUC 0 to 90 min.
The assay design is the same as that described above for the C57bl6 mouse IPGTT. The difference is that glucose was dosed PO at 3 g/kg, 7.5 ml/kg of 40% glucose.

The values below come from patent US9562053B2, “Benzo-fused heterocyclic derivatives useful as agonists of GPR120” (Janssen Pharmaceutica NV, priority 2013, dated 2017).

In the case of `Cc1c(CCC(=O)O)ccc(OCc2cc(Cl)cc3sc(CC(C)C)nc23)c1C` [Compound 110, 3-(4-{[6-Chloro-2-(2-methylpropyl)-1,3-benzothiazol-4-yl]methoxy}-2,3-dimethylphenyl)propanoic acid], the EC50 in assay [1] is 3310 nM; in assay [2] it was 949 nM.
As to `Cc1cc2cc(Cl)c(CCCS(C)(=O)=O)c(COc3ccc(CCC(=O)O)c(C)c3C)c2o1` [Compound 108, 3-[4-({5-Chloro-2-methyl-6-[3-(methylsulfonyl)propyl]-1-benzofuran-7-yl}methoxy)-2,3-dimethylphenyl]propanoic acid], the EC50 in assay [2] was found to be 2740 nM.
In the case of `Cc1c(CCC(=O)O)ccc(OCc2cc(F)cc3sc(C(C)C)nc23)c1C` [Compound 111, 3-(4-{[6-Fluoro-2-(1-methylethyl)-1,3-benzothiazol-4-yl]methoxy}-2,3-dimethylphenyl)propanoic acid], the EC50 is 299 nM in assay [1] and 107 nM in assay [2].
`CCCc1cc2cc(F)cc(COc3ccc(CCC(=O)O)c(C)c3C)c2o1` [Compound 13, 3-{4-[(5-Fluoro-2-propyl-1-benzofuran-7-yl)methoxy]-2,3-dimethylphenyl}propanoic acid]: the EC50 in assay [3] was 302 nM. For the same compound, the “Dose Responses C57 OGTT” value in assay [4] (3 mg/kg) and in assay [4] (10 mg/kg) was −16% in each case.
For `CCc1nc2c(COc3ccc(CCC(=O)O)c(C)c3C)cc(Cl)cc2s1` [Compound 109, 3-{4-[(6-Chloro-2-ethyl-1,3-benzothiazol-4-yl)methoxy]-2,3-dimethylphenyl}propanoic acid], the EC50 in assay [1] was 191 nM; in assay [2], 38 nM.
For the compound `Cc1c(CCC(=O)O)ccc(OCc2cc(F)cc3sc(C(C)(C)C)nc23)c1C` [Compound 107, 3-{4-[(2-tert-butyl-6-fluoro-1,3-benzothiazol-4-yl)methoxy]-2,3-dimethylphenyl}propanoic acid], the figures for the EC50 in assay [1] and in assay [2] were 3920 nM and 1010 nM, respectively.

In general, EC50 refers to the concentration that produces a half-maximal response.
